In one experiment the test system is hsp-6::gfp reporter (UPR^mt).
Test: not given
It counts as in vivo, Caenorhabditis elegans. The settings on record: 68 µM, 9-TB at 17 μM.
On to `CN(C)c1cc(NC(=O)CNC(C)(C)C)c(O)c2c1C[C@H]1C[C@H]3[C@H](N(C)C)C(O)=C(C(N)=O)C(=O)[C@@]3(O)C(O)=C1C2=O` [Tygacil ™, reference compound], for which the “UPR^mt activation (hsp-6::gfp reporter)” value is recorded as “did not activate”.
Regarding `CN(C)c1ccc(O)c2c1C[C@H]1C[C@H]3[C@H](N(C)C)C(O)=C(C(N)=O)C(=O)[C@@]3(O)C(O)=C1C2=O` [minocycline, reference compound], the “UPR^mt activation (hsp-6::gfp reporter)” value is given as “did not activate”.
Still for that read-out and setting: the entry for Omadacycline [reference compound] is “did not activate”.

The same experiment, now with this note: UPR^mt induction, C. elegans hsp-6::gfp reporter; compounds at 68 µM.
Turning to 4-oxime minocycline, the “Activity in Worm Assay” value was “inactive”.
11,12-pyrazolo doxycycline: the “Activity in Worm Assay” value is “inactive”.
With `CN(C)c1ccc(O)c2c1C[C@H]1C[C@H]3[C@H](N(C)C)C(O)=C(C(N)=O)C4=NNC(O)(C1C2=O)[C@]43O` (some centres unmarked) [1,12-hydroxypyrazolo minocycline], the “Activity in Worm Assay” value is “inactive”.
With `CN(C)c1ccc(O)c2c1C[C@H]1C[C@H]3[C@H](N(C)C)C(O)=C(C#N)C(=O)[C@@]3(O)C(O)=C1C2=O` [2N nitrile minocycline], the “Activity in Worm Assay” value was “inactive”.
As for `C=C1C(=O)c2c(O)ccc(N(C)C)c2C[C@H]1C[C@H](C)[C@@H](C)N(C)C` [2N-1,1′-dimethylbutane minocycline], the “Activity in Worm Assay” value is given as “slight”.
As to `C[C@H]1c2cccc(O)c2C(=O)C2=C(O)[C@]3(O)C(=O)C(C#N)=C(O)[C@@H](N(C)C)[C@@H]3[C@@H](O)[C@@H]21` [2N-nitrile doxycycline], the “Activity in Worm Assay” value was “inactive”.
Same read-out and setting: for `NC(=O)C1=C(O)C[C@@H]2C[C@@H]3Cc4ccc(N)c(O)c4C(=O)C3=C(O)[C@]2(O)C1=O` [4-dedimethyl-amino-9-amino sancycline] the value was “inactive”; for `CN(C)c1ccc(O)c2c1C[C@H]1C[C@H]3CC(O)=C(C(N)=O)C(=O)[C@@]3(O)C(O)=C1C2=O` [4-dedimethylamino minocycline], “inactive”.
Still for that read-out and setting: for `CN(C)c1cc(N)c(O)c2c1C[C@H]1C[C@H]3CC(O)=C(C(N)=O)C(=O)[C@@]3(O)C(O)=C1C2=O` [4-dedimethylamino-9-aminominocycline] the value was “inactive”; for `CN(C)[C@@H]1C(O)=C(C(N)=O)C(=O)[C@@]2(O)C(O)=C3C(=O)c4c(O)cccc4C(CSC4CCCC4)[C@H]3[C@H](OC(=O)C3CCCC3)[C@@H]12` (some centres unmarked) [5-cyclopentanoate-13-cyclopentylthio dihydro methacycline], “slight”; for `CCCCCC(=O)O[C@H]1[C@H]2C(=C(O)[C@]3(O)C(=O)C(C(N)=O)=C(O)[C@@H](N(C)C)[C@H]13)C(=O)c1c(O)cccc1[C@@H]2C` [5-hexanoate doxycycline], “slight”.
The same measure, in the same setting: the entry for `CCC(=O)O[C@H]1[C@H]2C(=C(O)[C@]3(O)C(=O)C(C(N)=O)=C(O)[C@@H](N(C)C)[C@H]13)C(=O)c1c(O)cccc1[C@@H]2C` [5-propionate doxycycline] is “inactive”; for `CN(C)[C@@H]1C(O)=C(C(N)=O)C(=O)[C@@]2(O)C(O)=C3C(=O)c4c(O)ccc(/C=C/c5ccccc5)c4C[C@H]3C[C@@H]12` [7-(1-styrylphenyl) sancycline] it is “inactive”; for `CN(C)[C@@H]1C(O)=C(C(N)=O)C(=O)[C@@]2(O)C(O)=C3C(=O)c4c(O)ccc(-c5ccc(F)cc5)c4C[C@H]3C[C@@H]12` [7-(4-fluoro-phenyl)sancycline] it is “inactive”.
`CCCCc1ccc(O)c2c1C[C@H]1C[C@H]3[C@H](N(C)C)C(O)=C(C(N)=O)C(=O)[C@@]3(O)C(O)=C1C2=O` [7-butyl sancycline]: the “Activity in Worm Assay” value is “slight”.
On to `CN(C)[C@@H]1C(O)=C(C(N)=O)C(=O)[C@@]2(O)C(O)=C3C(=O)c4c(O)ccc(C5CCCC5)c4C[C@H]3C[C@@H]12` [7-cyclopentyl sancycline], for which the “Activity in Worm Assay” value is “inactive”.
As for `CN(C)c1cc(-c2sccc2C(=O)O)c(O)c2c1C[C@H]1C[C@H]3[C@H](N(C)C)C(O)C(C(N)=O)C(=O)[C@@]3(O)C(O)=C1C2=O` (some centres unmarked) [9-(2′carboxy-1′-thiophene) minocycline], the “Activity in Worm Assay” value is “inactive”.
Still for that read-out and setting: the entry for `CN(C)c1cc(NC(=O)Nc2cc(C(F)(F)F)cc(C(F)(F)F)c2)c(O)c2c1C[C@H]1C[C@H]3[C@H](N(C)C)C(O)=C(C(N)=O)C(=O)[C@@]3(O)C(O)=C1C2=O` [9-(3,5-trifluoromethyl-phenylurea) aminominocycline] is “inactive”; for `CN(C)c1cc(-c2ccc(C(=O)O)s2)c(O)c2c1C[C@H]1C[C@H]3[C@H](N(C)C)C(O)=C(C(N)=O)C(=O)[C@@]3(O)C(O)=C1C2=O` [9-(4′-carboxy-1′-thiophene) minocycline] it is “inactive”.
Still for that read-out and setting: for `CN(C)c1cc(NC(=O)CN2CCCC2)c(O)c2c1C[C@H]1C[C@H]3[C@H](N(C)C)C(O)=C(C(N)=O)C(=O)[C@@]3(O)C(O)=C1C2=O` [9-(pyrrolidinyl-methylcarbonyl) aminominocycline] the value was “inactive”.
Turning to `CC(=O)Nc1ccc2c(c1O)C(=O)C1=C(O)[C@]3(O)C(=O)C(C(N)=O)=C(O)[C@@H](N(C)C)[C@@H]3[C@@H](O)[C@@H]1[C@H]2C` [9-acetylamino doxycycline], the “Activity in Worm Assay” value was “inactive”.
Still for that read-out and setting: for `CCc1ccc2c(c1O)C(=O)C1=C(O)[C@]3(O)C(=O)C(C(N)=O)=C(O)[C@@H](N(C)C)[C@@H]3[C@@H](O)[C@@H]1[C@H]2C` [9-ethyl doxycycline] the value was “inactive”; for `CCc1cc(N(C)C)c2c(c1O)C(=O)C1=C(O)[C@]3(O)C(=O)C(C(N)=O)=C(O)[C@@H](N(C)C)[C@@H]3C[C@@H]1C2` [9-ethyl minocycline], “inactive”; for `CCOC(=O)/C=C/c1ccc2c(c1O)C(=O)C1=C(O)[C@]3(O)C(=O)C(C(N)=O)=C(O)[C@@H](N(C)C)[C@@H]3[C@@H](O)[C@@H]1[C@H]2C` [9-ethylacrylate doxycycline], “slight”.
In the case of `CN(C)[C@@H]1C(O)=C(C(N)=O)C(=O)[C@@]2(O)C(O)=C3C(=O)c4c(ccc(C(C)(C)C)c4O)C[C@H]3C[C@@H]12` [9-tert-butyl sancycline], the “Activity in Worm Assay” value was “inactive”.
The same measure, in the same setting: the entry for `CN(C)c1ccc(OS(=O)(=O)C(F)(F)F)c2c1C[C@H]1C[C@H]3[C@H](N(C)C)C(O)=C(C(N)=O)C(=O)[C@@]3(O)C(O)=C1C2=O` [10-triflate minocycline] is “inactive”; for `CN(C)c1ccc(O)c2c1C[C@H]1C[C@H]3[C@H](N(C)C)C(O)=C(C(N)=O)C(=O)[C@@]3(O)C3NN=C2C31` (some centres unmarked) [11,12-pyrazolo minocycline] it is “inactive”; for `CN(C)[C@@H]1C(O)=C(C(N)=O)C(=O)[C@@]2(O)C(O)=C3C(=O)c4c(O)cccc4/C(=C\c4ccc(Br)cc4)[C@H]3[C@H](O)[C@@H]12` [13-(4′-bromophenyl) methacycline] it is “slight”.
As to `COc1ccc(/C=C2\c3cccc(O)c3C(=O)C3=C(O)[C@]4(O)C(=O)C(C(N)=O)=C(O)[C@@H](N(C)C)[C@@H]4[C@@H](O)[C@@H]32)cc1` [13-(4′-methoxyphenyl) methacycline], the “Activity in Worm Assay” value is on record as “slight”.
Same read-out and setting: for `CN(C)[C@@H]1C(O)=C(C(N)=O)C(=O)[C@@]2(O)C(O)=C3C(=O)c4c(O)cccc4C(CSC4CCCC4)[C@H]3[C@H](O)[C@@H]12` (some centres unmarked) [13-cyclopentylthio dihydro methacycline] the value was “slight”.
The same measure, in the same setting: for `CC(C)SCC1c2cccc(O)c2C(=O)C2=C(O)[C@]3(O)C(=O)C(C(N)=O)=C(O)[C@@H](N(C)C)[C@@H]3[C@@H](O)[C@@H]21` (some centres unmarked) [13-isopropylthio dihydro methacycline] the value was “slight”.
Still for that read-out and setting: the entry for `CN(C)[C@@H]1C(O)=C(C(N)=O)C(=O)[C@@]2(O)C(O)=C3C(=O)c4c(O)cccc4C(CSc4ccccc4)[C@H]3[C@H](O)[C@@H]12` (some centres unmarked) [13-thiophenyl dihydro methacycline] is “slight”.
Take `CN(C)[C@@H]1C(O)=C(C(N)=O)C(=O)[C@@]2(O)C(O)=C3C(=O)c4c(O)cccc4S[C@H]3C[C@@H]12` [Thiatetracycline, reference compound]: the “Activity in Worm Assay” value is “inactive”.
Turning to `CN(C)c1cc(NC(=O)CNC(C)(C)C)c(O)c2c1C[C@H]1C[C@H]3[C@H](N(C)C)C(O)=C(C(N)=O)C(=O)[C@@]3(O)C(O)=C1C2=O` [Tygacil ™, reference compound], the “Activity in Worm Assay” value is recorded as “slight”.
Consider `CN(C)[C@@H]1C(O)=C(C(N)=O)C(=O)[C@@]2(O)C(O)=C3C(=O)c4c(O)ccc(Cl)c4[C@@H](O)[C@H]3C[C@@H]12` [demeclocycline, reference compound], for which the “Activity in Worm Assay” value is “slight”.
Same read-out and setting: for `CN(C)c1ccc(O)c2c1C[C@H]1C[C@H]3[C@H](N(C)C)C(O)=C(C(N)=O)C(=O)[C@@]3(O)C(O)=C1C2=O` [minocycline, reference compound] the value was “inactive”; for `CN(C)[C@@H]1C(O)=C(C(N)=O)C(=O)[C@@]2(O)C(O)=C3C(=O)c4c(O)cccc4[C@@](C)(O)[C@H]3[C@H](O)[C@@H]12` [oxytetracycline, reference compound], “slight”; for Omadacycline [reference compound], “inactive”.

Staying with this experiment, now noted: summary of screen of 51 tetracycline derivatives.
Consider “7,9-bis(2,6-difluoro-4-pyridynyl)-sancycline [7,9-bis3POyr26 diF dox]”, for which the “induction of MSR and in particular mitohormesis” value is given as “strongly induce MSR”.
Take 8-bromo sancycline: the “induction of MSR and in particular mitohormesis” value is recorded as “strongly induce MSR”.

A further experiment concerns E. coli. The experiment is described as follows: Minimum inhibitory concentration (MIC) of bacterial growth. The settings on record: compared with Dox. The experiment is classed as cell-based.
Take “7,9-bis(2,6-difluoro-4-pyridynyl)-sancycline [7,9-bis3POyr26 diF dox]”: the “MIC for E. coli” value is “significantly higher MIC”.
On to 8-bromo sancycline, for which the “MIC for E. coli” value is “significantly higher MIC”.

The test system of another experiment is P. aeruginosa. Described as above. The experiment is classed as cell-based. The settings on record: compared with Dox.
Regarding “7,9-bis(2,6-difluoro-4-pyridynyl)-sancycline [7,9-bis3POyr26 diF dox]”, the “MIC for P. aeruginosa” value was “significantly higher MIC”.
The same measure, in the same setting: for 8-bromo sancycline the value was “significantly higher MIC”.

Source of the values: US20240299420A1, “TETRACYCLINE DERIVATIVE-INDUCED MITOHORMESIS MEDIATES DISEASE TOLERANCE AGAINST VIRAL INFECTIONS” (priority 2021, published 2024).
